Consider two compounds from ChEMBL document CHEMBL5038568, “Bioactive Cyclization Optimizes the Affinity of a Proprotein Convertase Subtilisin/Kexin Type 9 (PCSK9) Peptide Inhibitor” (J Med Chem, 2021).

Numbered stars: 1 amine (or outer) side, 2 acyl side, 3 side chain; on linkers, the order of the positions; unused ones are H or OH. Bridge positions count the residues as written; N and C are the ends. Peptide text beside a SMILES is read from it. X1 = N[C@@H](CS[*:1])C(=O)NC(=O)[C@H](CO)N[*:2]

In data set [1] the target is T1, Proprotein convertase subtilisin/kexin type 9 (Homo sapiens, UniProt Q8NBP7). Description: Binding affinity to human PCSK9 assessed as dissociation constant.
Data set [2] has as its target T1, Proprotein convertase subtilisin/kexin type 9. Description: Binding affinity to full length C-terminal Avi/His6-tagged human PCSK9 expressed in Expi293 cells assessed as change in enthalpy by isothermal titration calorimetric analysis.
The target is the same in data set [3]. Description: Inhibition of tEGF-A[HA] binding to biotinylated human PCSK9 incubated for 2 hrs by ELISA based competitive binding assay.
Data set [4] shares this target. Description: Binding affinity to full length C-terminal Avi/His6-tagged human PCSK9 expressed in Expi293 cells assessed as equilibrium dissociation constant by surface plasmon resonance assay.
For data set [5] the target is unchanged. Description: Binding affinity to full length C-terminal Avi/His6-tagged human PCSK9 expressed in Expi293 cells assessed as dissociation rate constant (Koff) by surface plasmon resonance assay.
Data set [6] shares this target. Description: Binding affinity to full length C-terminal Avi/His6-tagged human PCSK9 expressed in Expi293 cells assessed as change in entropy by isothermal titration calorimetric analysis.
For data set [7] the target is unchanged. Description: Inhibition of PCSK9 in human HepG2 cells assessed as restoration of surface LDLR level at 50 nM incubated for 2 hrs by Western blot analysis (Rvb= 37.5 +/- 13.9%). The format is cell-based. Also noted: scale not given: the % may be the effect or the level left.
Data set [8] has as its system HepG2. Description: Cytotoxicity against human HepG2 cells assessed as reduction in cell viability at 10 uM incubated for 48 hrs by MTT assay. It counts as toxicity, cell-based. To be noted: hepg2, 48 h.
Data set [9] addresses T1, Proprotein convertase subtilisin/kexin type 9. Description: Inhibition of PCSK9 in human HepG2 cells assessed as restoration of PCSK9-induced reduction in fluorescent LDL uptake at 50 nM incubated for 2 hrs by fluorescence plate reader analysis (Rvb= 46.1 +/- 5.6%). On the set-up: scale not given: the % may be the effect or the level left. It counts as cell-based.

As for `CC(C)C[C@H](NC(=O)[C@H](Cc1ccc(O)cc1)NC(=O)[C@H](CCC(=O)O)NC(=O)[C@H](CCC(=O)O)NC(=O)[C@H](Cc1c[nH]c2ccccc12)NC(=O)[C@H](CO)NC(=O)[C@@H](NC(=O)[C@H](Cc1ccccc1)NC(=O)[C@@H](NC(=O)[C@@H](N)[C@@H](C)O)C(C)C)[C@@H](C)O)C(=O)N[C@@H](CC(=O)O)C(=O)N[C@@H](Cc1c[nH]c2ccccc12)C(=O)N[C@H](C(=O)O)C(C)C`, the Kd in data set [1] stood at 660 nM.

With `CC(C)C[C@@H]1NC(=O)[C@H](Cc2ccc(O)cc2)NC(=O)[C@H](CCC(=O)O)NC(=O)[C@H](CCC(=O)O)NC(=O)[C@H](Cc2c[nH]c3ccccc23)NC(=O)[C@H](CO)NC(=O)[C@H]([C@@H](C)O)NC(=O)[C@H](Cc2ccccc2)NC(=O)[C@H](C(C)C)NC(=O)[C@H]([C@@H](C)O)NC(=O)[C@@H](N)CSSC[C@H](N)C(=O)NC(=O)[C@H](CO)NC(=O)[C@H](CC(N)=O)NC(=O)[C@H](CCCNC(=N)N)NC(=O)[C@@H]2CCCN2C(=O)[C@H](Cc2cnc[nH]2)NC(=O)[C@H](CC(C)C)NC(=O)[C@H](CC(N)=O)NC(=O)[C@H](CC(N)=O)NC(=O)[C@H](Cc2c[nH]c3ccccc23)NC(=O)[C@H](CC(=O)O)NC1=O` (H-CTVFTSWEEYLDWNNLHPRN; linker 1-C via X1), the deltaH in data set [2] is -37.3 kcal/mol. For the same compound, the IC50 in data set [3] is 1260 nM. In addition, the Kd in [4] came out at 974 nM. The K in data set [5] is 0.02 s⁻¹. Besides, the deltaS in data set [6] is -89.5 cal/mol/K. Besides, the Activity was 112% in data set [7], “Non-Toxic” in [8] and 97.1% in data set [9].
